Values quoted from earlier work in patent US20240239832A1, “A PROCESS FOR THE PREPARATION OF N4-HYDROXYCYTIDINE AND ITS DERIVATIVES” (priority 2021, published 2024).

Assays:
[1] = tested on: acute respiratory syndrome coronavirus (SARS-CoV); details: read-out: IC50, inhibition of replication of SARS-CoV
[2] = tested on: Venezuelan equine encephalitis virus (VEEV) TC-83; details: read-out: EC50, reduction of viral titers of VEEV TC-83
SARS-CoV-2 = details: Vero cells; read-out: IC50, inhibition of replication of SARS-CoV-2
[3] = tested on: Middle East respiratory syndrome coronavirus (MERS-CoV); details: read-out: IC50, inhibition of replication of MERS-CoV
[4] = tested on: remdesivir-resistant strains of the model CoV mouse hepatitis virus (MHV); details: infected DBT cells

O=c1nc(NO)ccn1[C@@H]1O[C@H](CO)[C@@H](O)[C@H]1O [EIDD-1931, 1-(3,4-dihydroxy-5-(hydroxymethyl)tetrahydrofuran-2-yl)-4-(hydroxyamino)pyrimidin-2(1H)-one]
IC50 [1]: 0.1 µM | EC50 [2]: 0.426 µM | IC50 (SARS-CoV-2): 0.3 µM | IC50 [3]: 0.15 µM | reduction of viral titers of remdesivir-resistant MHV [4]: reduces viral titers
